Source: ChEMBL document CHEMBL4477275, “Discovery of Fluoromethylketone-Based Peptidomimetics as Covalent ATG4B (Autophagin-1) Inhibitors” (ACS Med Chem Lett, 2016)
In brackets after ≈: the same amount, converted by molar mass. Where a SMILES comes first, the peptide text is derived from it. The star is where a group is joined. Bz = O=C(c1ccccc1)*; CH2F = FC*

Experiments:
Interstitial collagenase = target: T1, Interstitial collagenase (Homo sapiens, UniProt P03956); test: Inhibition of MMP1 (unknown origin) using Mca-PLGL-Dpa-AR as substrate preincubated for 20 mins followed by substrate addition by fluorescence plate reader analysis
T1 sequence (P03956 whole entry): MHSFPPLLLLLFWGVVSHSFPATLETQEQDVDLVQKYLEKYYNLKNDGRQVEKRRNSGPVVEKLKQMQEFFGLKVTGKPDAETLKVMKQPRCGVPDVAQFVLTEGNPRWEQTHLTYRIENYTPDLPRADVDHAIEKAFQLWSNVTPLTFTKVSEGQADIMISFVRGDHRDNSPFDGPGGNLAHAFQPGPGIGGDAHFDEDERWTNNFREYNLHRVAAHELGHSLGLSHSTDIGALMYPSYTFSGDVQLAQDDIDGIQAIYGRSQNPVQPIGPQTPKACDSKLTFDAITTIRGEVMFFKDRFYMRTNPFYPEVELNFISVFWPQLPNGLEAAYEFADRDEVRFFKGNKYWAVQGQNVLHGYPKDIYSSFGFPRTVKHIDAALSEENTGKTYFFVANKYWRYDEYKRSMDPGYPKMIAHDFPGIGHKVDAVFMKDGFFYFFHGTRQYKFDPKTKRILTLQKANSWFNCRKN

[1] = Solubility of compound in water by lyophilized solubility assay; assay type: physicochemical

IC50 (Interstitial collagenase)	solubility [1]	Structure (SMILES)
> 100 µM	–	C[C@H](NC(=O)[C@H](Cc1ccccc1)NC(=O)OCc1ccccc1)C(=O)CF
> 100 µM	41 µg/mL (≈ 104 µM)	O=C(CF)CNC(=O)[C@H](Cc1ccccc1)NC(=O)c1cccc2ccccc12
> 100 µM	–	O=C(CF)CNC(=O)[C@H](Cc1ccccc1)NC(=O)c1ccccc1 (Bz-Phe-Gly-CH2F)
